{
  "source": "patent US8088796B2",
  "about": "“Triamine derivative” (Daiichi Sankyo Company, Limited, priority 2005, dated 2012)",
  "key": {"[1]": {"assay": "Test for oral administration (plasma concentration)", "type": "in vivo", "details": "1 mg/kg, monkey, fasted, 1 mg/2 mL/kg as free form in 0.5% methyl cellulose, plasma 0.5-24 h, HPLC/MS/MS", "protocol": "Test for Oral Administration\nTo a monkey which had been fasted for over 15 hours, each test compound was orally administered in a free form at a dose of 1 mg/2 mL/kg. The test compound was dissolved or suspended in a 0.5% methyl cellulose solution. Before and 0.5, 1, 2, 4, 8 and 24 hours after the administration, the blood was collected at a ratio of 9 volumes to 1 volume of […] (total 1 ml). The blood was centrifuged (3000 rpm, 10 minutes, 4° C.), and the plasma was collected by separation. The separated plasma was pre-treated, and was subjected to measurement with HPLC/MS/MS, to calculate the plasma concentration from the areas under peak of the internal standard material and the test compound given by SRM chromatography using a calibration curve."}, "[2]": {"target": "T1, human FXa (Homo sapiens, UniProt P00742)", "T1 construct": "purchased Enzyme Research Laboratories, Inc", "T1 sequence (P00742 235-488 limits assumed)": "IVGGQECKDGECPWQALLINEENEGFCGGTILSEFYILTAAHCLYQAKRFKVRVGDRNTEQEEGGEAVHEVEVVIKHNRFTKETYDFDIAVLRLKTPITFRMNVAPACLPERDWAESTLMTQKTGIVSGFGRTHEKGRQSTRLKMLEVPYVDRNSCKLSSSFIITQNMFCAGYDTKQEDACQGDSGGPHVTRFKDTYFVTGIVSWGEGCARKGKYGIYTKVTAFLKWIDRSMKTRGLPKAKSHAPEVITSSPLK", "T1 sequence (P00742 41-179 partner limits assumed)": "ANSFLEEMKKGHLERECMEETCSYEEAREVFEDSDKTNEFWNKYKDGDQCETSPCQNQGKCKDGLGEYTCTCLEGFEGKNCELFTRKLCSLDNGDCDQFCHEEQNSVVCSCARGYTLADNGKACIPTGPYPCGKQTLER", "assay": "Determination of human FXa inhibitory effect (IC50 value)", "type": "biochemical", "details": "substrate S-2222, absorbance at 405 nm, room temperature, read-out: FXaIC50", "protocol": "Determination of Human FXa Inhibitory Effect (IC50 Value)\nTo each well of a 96-well microplate, 10 μl of 5% DMSO solutions of each test compound, the concentrations of which were appropriately prepared stepwise, 40 μl of Tris buffer (100 mM Tris, 200 mM potassium chloride, 0.2% BSA, pH 7.4) and 10 μl of 0.0625 U/ml human FXa (Enzyme Research Laboratories, Inc. dissolved and diluted with Tris buffer) were added, and 40 μl of a 750 μM aqueous solution of S-2222 (Chromogenix Co.) was added. Absorbance at 405 nm was measured for 10 minutes at room temperature to determine an increase in absorbance (ΔOD/min). As a control, Tris buffer was used in place of the test compound.\nThe rate of inhibition (%) at the final concentration of the test compound calculated using the following equation and the final concentration of the test compound were plotted as ordinate and as abscissa, respectively on a logarithmic normal probability paper, to determine the 50% inhibition dose (IC^50 value). Rate of inhibition (%)=(1−(ΔOD/min) of test compound[…](ΔOD/min) of control)×100"}, "[3]": {"test_system": "Human blood plasma", "assay": "Determination of prothrombin time (PT)", "type": "biochemical", "details": "concentration at which PT is doubled, Thromboplastin C Plus, linear regression", "protocol": "Determination of Prothrombin Time (PT)\nHuman blood plasma (50 μl) was added to 50 μl of each test compound dissolved in 4% DMSO/physiological saline, and the mixture was pre-incubated at 37° C. for 1 minute. Subsequently, 100 μl of 0.5 U/ml Thromboplastin C Plus (Dade Behring) was added to initiate the reaction. The coagulation time was measured using Amelung KC-10A micro coagulometer (MC Medical). As a control, 4% DMSO/physiological saline was used in place of the test compound. The concentration at which PT is doubled (PTCT2) was calculated by linear regression."}},
  "note": "Structures can show the parent of a compound that is named as a salt.",
  "data": [
    {"smiles": "CN1CCc2nc(C(=O)N[C@@H]3CN(C=O)CC[C@@H]3NC(=O)C(=O)Nc3ccc(Cl)cn3)sc2C1", "note": "[Example 8, N^1-(5-chloropyridin-2-yl)-N^2-((3R,4S)-1-formyl-3-{[(5-methyl-4,5,6,7-tetrahydrothiazolo[5,4-c]pyridin-2-yl)carbonyl]amino}piperidin-4-yl)ethanediamide hydrochloride]", "values": [
      {"measurement": "AUC", "setting": "[1]", "result": 826, "unit": "ng·h/mL"},
      {"measurement": "IC50", "setting": "[2]", "result": 2.2, "unit": "nM"},
      {"measurement": "PTCT2", "setting": "[3]", "result": 0.26, "unit": "µM"}
    ]},
    {"smiles": "O=CN1CC[C@H](NC(=O)C(=O)Nc2ccc(Cl)cn2)[C@H](NC(=O)c2nc3c(s2)COCC3)C1", "note": "[Example 38, N^1-(5-chloropyridin-2-yl)-N^2-((3R,4S)-3-{[(6,7-dihydro-4H-pyrano[4,3-d]thiazol-2-yl)carbonyl]amino}-1-formylpiperidin-4-yl)ethanediamide]", "values": [
      {"measurement": "AUC", "setting": "[1]", "result": 880, "unit": "ng·h/mL"},
      {"measurement": "IC50", "setting": "[2]", "result": 3, "unit": "nM"},
      {"measurement": "PTCT2", "setting": "[3]", "result": 0.50, "unit": "µM"}
    ]},
    {"smiles": "COCC(=O)N1CC[C@H](NC(=O)C(=O)Nc2ccc(Cl)cn2)[C@H](NC(=O)c2nc3c(s2)CN(C)CC3)C1.Cl", "note": "[Compound A, N^1-(5-chloropyridin-2-yl)-N^2-((3R,4S)-1-(2-methoxyacetyl)-3-{[(5-methyl-4,5,6,7-tetrahydrothiazolo[5,4-c]pyridin-2-yl)carbonyl]amino}piperidin-4-yl)ethanediamide hydrochloride, reference compound]", "values": [
      {"measurement": "AUC", "setting": "[1]", "result": 157, "unit": "ng·h/mL"},
      {"measurement": "IC50", "setting": "[2]", "result": 2.3, "unit": "nM"},
      {"measurement": "PTCT2", "setting": "[3]", "result": 0.37, "unit": "µM"}
    ]},
    {"smiles": "CN1CCc2nc(C(=O)N[C@@H]3CN(C=O)CC[C@@H]3NC(=O)C(=O)Nc3ccc(Cl)s3)sc2C1", "note": "[Example 23, N^1-(5-chlorothiophen-2-yl)-N^2-((3R,4S)-1-formyl-3-{[(5-methyl-4,5,6,7-tetrahydrothiazolo[5,4-c]pyridin-2-yl)carbonyl]amino}piperidin-4-yl)ethanediamide hydrochloride]", "values": [
      {"measurement": "AUC", "setting": "[1]", "result": 899, "unit": "ng·h/mL"},
      {"measurement": "IC50", "setting": "[2]", "result": 0.9, "unit": "nM"},
      {"measurement": "PTCT2", "setting": "[3]", "result": 0.14, "unit": "µM"}
    ]},
    {"smiles": "CC(=O)N1CC[C@H](NC(=O)C(=O)Nc2ccc(Cl)cn2)[C@H](NC(=O)c2nc3c(s2)CN(C)CC3)C1", "note": "[Example 9, N^1-((3R,4S)-1-acetyl-3-{[(5-methyl-4,5,6,7-tetrahydrothiazolo[5,4-c]pyridin-2-yl)carbonyl]amino}piperidin-4-yl)-N^2-(5-chloropyridin-2-yl)ethanediamide hydrochloride]", "values": [
      {"measurement": "AUC", "setting": "[1]", "result": 482, "unit": "ng·h/mL"},
      {"measurement": "IC50", "setting": "[2]", "result": 1.6, "unit": "nM"},
      {"measurement": "PTCT2", "setting": "[3]", "result": 0.25, "unit": "µM"}
    ]}
  ]
}
